Reference: patent US20070203057A1, “COMPOUNDS AND METHODS FOR MODULATING ADHESION MOLECULE FUNCTION” (ADHEREX TECHNOLOGIES, INC., priority 1998, published 2007)
One block for each substance: values may come before it.

Legend:
N-cadherin [1] = assay: Neurite outgrowth of rat neurons on monolayers of 3T3 cells expressing N-cadherin; assay type: cell-based; conditions: for Percent Inhibition of Neurite Outgrowth on 3T3 Cells Expressing N-cadherin: rat neurons, 20 hours
Experimental: (§1) Neurons were cultured on monolayers of 3T3 cells transfected with cDNA encoding N-cadherin essentially as described by Doherty and Walsh, Curr. Op. Neurobiol. 4:49-55, 1994; Williams et al., Neuron 13:583-594, 1994; Hall et al., Cell Adhesion and Commun. 3:441-450, 1996; Doherty and Walsh, Mol. Cell. Neurosci. 8:99-111, 1994; Safell et al., Neuron 18:231-242, 1997. Briefly, monolayers of control 3T3 fibroblasts and 3T3 fibroblasts that express N-cadherin were established by overnight culture of 80,000 cells in individual wells of an 8-chamber well tissue culture slide. 3000 cerebellar neurons isolated from post-natal day 3 mouse brains were cultured for 18 hours on the various monolayers in control media (SATO/2% FCS), or media supplemented with various concentrations of the test peptide to be evaluated. The cultures were then fixed and stained for GAP43 which specifically binds to the neurons and their neurites. The length of the longest neurite on each GAP43 positive neuron was then measured by computer assisted morphometry. For each data point, measurements were made from 100-160 neurons, and the given values show the mean +/− the standard error of the mean.
(§2) The ability of different modulating agents to inhibit neurite outgrowth was also evaluated. […] The peptides were tested at different concentrations. Rat neurons were grown for 20 hours on monolayers of either 3T3 cells, or 3T3 cells expressing N-cadherin. The cultures were then fixed, and the mean neurite length was determined by making measurements on at least 150 neurons for each treatment. The results are presented as the percentage inhibition of neurite outgrowth over 3T3 cells expressing N-cadherin.
Similar experiments, illustrated in Table III, were performed to evaluate the effect of various cyclic peptide modulating agents derived from EC1 of human N-cadherin on neurite outgrowth.
(§3) To further evaluate the specificity of these peptide modulating agents, inhibition of neurite outgrowth was assessed, at 100 μg/ml, on monolayers of 3T3 cells transfected with various molecules responsible for neurite outgrowth. The results, shown in Table IV, illustrate a high level of specificity for N-cadherin mediated neurite outgrowth.
Further experiments were performed as described above to assess the activity of peptide modulating agents derived from EC4 of human N-cadherin.

NCAM [2] = biological target: T1, NCAM (Homo sapiens, UniProt P13591); assay: Neurite outgrowth over 3T3 cells transfected with NCAM; assay type: cell-based, rat; conditions: 100 μg/ml
T1 construct: expressed in transfected cells; host or cells: 3T3 cells
Experimental: as §2, §3

L1 [3] = biological target: T2, L1 (Homo sapiens, UniProt P32004); assay: Neurite outgrowth over 3T3 cells transfected with L1; assay type: cell-based, rat; conditions: 100 μg/ml
T2 construct: expressed in transfected cells; host or cells: 3T3 cells
Experimental: as §2, §3

N-cadherin [4] = assay: Neurite outgrowth of mouse cerebellar neurons on monolayers of 3T3 cells expressing N-cadherin; assay type: cell-based
Description: Within a representative neurite outgrowth assay, neurons may be cultured on a monolayer of cells (e.g., 3T3 fibroblasts) that express N-cadherin. […] For example, neurons may be cultured on monolayers of 3T3 cells transfected with cDNA encoding N-cadherin essentially as described by Doherty and Walsh, Curr. Op. Neurobiol. 4:49-55, 1994; Williams et al., Neuron 13:583-594, 1994; Hall et al., Cell Adhesion and Commun. 3:441-450, 1996; Doherty and Walsh, Mol. Cell. Neurosci. 8:99-111, 1994; and Safell et al., Neuron 18:231-242, 1997. Briefly, monolayers of control 3T3 fibroblasts and 3T3 fibroblasts that express N-cadherin may be established by overnight culture of 80,000 cells in individual wells of an 8-chamber well tissue culture slide. […] The length of the longest neurite on each GAP43 positive neuron may be measured by computer assisted morphometry.
Neurons were cultured on monolayers of 3T3 cells transfected with cDNA encoding N-cadherin essentially as described by Doherty and Walsh, Curr. […] 3000 cerebellar neurons isolated from post-natal day 3 mouse brains were cultured for 18 hours on the various monolayers in control media (SATO/2% FCS), or media supplemented with various concentrations of the test peptide to be evaluated. […] The length of the longest neurite on each GAP43 positive neuron was then measured by computer assisted morphometry. […]

NCAM [5] = biological target: T1, NCAM; assay: Neurite outgrowth of mouse cerebellar neurons on monolayers of 3T3 cells expressing NCAM; assay type: cell-based; conditions: 250 μg/ml; FIG. 6
Experimental: as §1, with “For each data point, measurements were made from 100-160 neurons, and the given values show the mean +/− the standard error of the mean.” left out
(§4) The mean neurite length was further measured for neurons cultured on monolayers of 3T3 cells, 3T3 cells expressing N-cadherin, 3T3 cells expressing NCAM, and 3T3 cells expressing L1 in media containing the linear peptide H-WLKIDPVNGQI-OH (SEQ ID NO:13; designated N-CAD-CHD2) at a concentration of 250 μg/ml. […]

L1 [6] = biological target: T2, L1; assay: Neurite outgrowth of mouse cerebellar neurons on monolayers of 3T3 cells expressing L1; assay type: cell-based; conditions: 250 μg/ml; FIG. 6
Experimental: as §1, with “For each data point, measurements were made from 100-160 neurons, and the given values show the mean +/− the standard error of the mean.” left out
as §4

N-cadherin-Fc chimera = assay: Binding of peptide to flow cell coated with N-cadherin-Fc chimera (human IgG1 control subtracted); conditions: 250, 500 or 1000 μg/ml, FIG. 7
Description: As noted above, native HAV-BM sequences, as well as analogues and mimetics thereof, bind to a classical cadherin, preferably within or near an HAV sequence, and modulate a cadherin-mediated response. The ability to bind to a cadherin sequence may generally be evaluated using any binding assay known to those of ordinary skill in the art. For example, a Pharmacia Biosensor machine may be used, as discussed in Jonsson et al., Biotechniques 11:520-27, 1991. A specific example of the technology that measures the interaction of peptides with molecules can be found in Williams et al., J. Biol. Chem. 272:8539-8545, 1997. Real-time BIA (Biomolecular Interaction Analysis) uses the optical phenomenon surface plasmon resonance to monitor biomolecular interactions. […] Binding to the chip is measured in real-time in arbitrary units of resonance (RU). […]
To determine binding, test analytes (e.g., cadherin peptides, such as HAV-containing peptides) may be placed in running buffer and passed simultaneously over test and control flow cells. […] Specific binding to the derivatized sensor chips may be determined automatically by the system by subtraction of […] flow cell responses. […]

FGFR = assay: Neurite outgrowth over 3T3 cells transfected with FGFR; assay type: cell-based, rat; conditions: 100 μg/ml
Experimental: as §2, §3

[7] = system: human ovarian cancer cells (SKOV3); assay: Disruption of tumor cell adhesion in SKOV3 monolayer cultures; assay type: cell-based; conditions: 1 mg/mL, 24 hours; FIG. 8B
Description: Within certain cell adhesion assays, the addition of a modulating agent to cells that express a cadherin results in disruption of cell adhesion. A “cadherin-expressing cell,” as used herein, may be any type of cell that expresses at least one cadherin on the cell surface at a detectable level, using standard techniques such as immunocytochemical protocols (e.g., Blaschuk and Farookhi, Dev. Biol. 136:564-567, 1989). Cadherin-expressing cells include endothelial, epithelial and/or cancer cells. For example, such cells may be plated under standard conditions that, in the absence of modulating agent, permit cell adhesion. In the presence of modulating agent (e.g., 500 μg/mL), disruption of cell adhesion may be determined visually within 24 hours, by observing retraction of the cells from one another.
Monolayer cultures of human ovarian cancer cells (SKOV3) were grown in the presence and absence of the peptide N-Ac-INPISGQ-NH2 (SEQ ID NO:22).

[8] = 3 μg/ml, cyclic peptides, Table III
[9] = 10 μg/ml, cyclic peptides, Table III
[10] = 33 μg/ml, cyclic peptides, Table III
[11] = 100 μg/ml, cyclic peptides, Table III
[12] = 11 μg/ml, EC4-derived peptides, Table V

T1 sequence (P13591 20-858, species assumed): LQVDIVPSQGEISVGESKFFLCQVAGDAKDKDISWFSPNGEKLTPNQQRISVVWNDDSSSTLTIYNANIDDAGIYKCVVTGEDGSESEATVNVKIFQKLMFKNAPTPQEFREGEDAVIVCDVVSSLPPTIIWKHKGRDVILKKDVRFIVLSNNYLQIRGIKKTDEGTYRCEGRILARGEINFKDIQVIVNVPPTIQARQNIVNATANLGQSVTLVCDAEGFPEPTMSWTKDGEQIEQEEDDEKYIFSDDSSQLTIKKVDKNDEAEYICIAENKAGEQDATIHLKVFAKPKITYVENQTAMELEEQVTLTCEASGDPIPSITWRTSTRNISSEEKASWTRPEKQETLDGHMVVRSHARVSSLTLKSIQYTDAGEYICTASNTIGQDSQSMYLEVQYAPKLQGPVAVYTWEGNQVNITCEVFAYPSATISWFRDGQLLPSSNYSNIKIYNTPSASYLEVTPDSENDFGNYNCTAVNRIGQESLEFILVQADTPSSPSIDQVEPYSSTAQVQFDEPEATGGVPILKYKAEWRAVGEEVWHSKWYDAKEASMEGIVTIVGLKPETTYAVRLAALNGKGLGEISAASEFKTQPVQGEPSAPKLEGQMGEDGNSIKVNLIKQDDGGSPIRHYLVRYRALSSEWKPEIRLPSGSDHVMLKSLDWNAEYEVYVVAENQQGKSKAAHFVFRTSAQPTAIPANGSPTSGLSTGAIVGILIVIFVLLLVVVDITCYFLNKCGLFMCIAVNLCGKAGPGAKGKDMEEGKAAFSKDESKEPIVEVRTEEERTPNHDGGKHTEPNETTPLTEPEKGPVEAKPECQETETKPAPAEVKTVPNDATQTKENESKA
T2 sequence (P32004 20-1257): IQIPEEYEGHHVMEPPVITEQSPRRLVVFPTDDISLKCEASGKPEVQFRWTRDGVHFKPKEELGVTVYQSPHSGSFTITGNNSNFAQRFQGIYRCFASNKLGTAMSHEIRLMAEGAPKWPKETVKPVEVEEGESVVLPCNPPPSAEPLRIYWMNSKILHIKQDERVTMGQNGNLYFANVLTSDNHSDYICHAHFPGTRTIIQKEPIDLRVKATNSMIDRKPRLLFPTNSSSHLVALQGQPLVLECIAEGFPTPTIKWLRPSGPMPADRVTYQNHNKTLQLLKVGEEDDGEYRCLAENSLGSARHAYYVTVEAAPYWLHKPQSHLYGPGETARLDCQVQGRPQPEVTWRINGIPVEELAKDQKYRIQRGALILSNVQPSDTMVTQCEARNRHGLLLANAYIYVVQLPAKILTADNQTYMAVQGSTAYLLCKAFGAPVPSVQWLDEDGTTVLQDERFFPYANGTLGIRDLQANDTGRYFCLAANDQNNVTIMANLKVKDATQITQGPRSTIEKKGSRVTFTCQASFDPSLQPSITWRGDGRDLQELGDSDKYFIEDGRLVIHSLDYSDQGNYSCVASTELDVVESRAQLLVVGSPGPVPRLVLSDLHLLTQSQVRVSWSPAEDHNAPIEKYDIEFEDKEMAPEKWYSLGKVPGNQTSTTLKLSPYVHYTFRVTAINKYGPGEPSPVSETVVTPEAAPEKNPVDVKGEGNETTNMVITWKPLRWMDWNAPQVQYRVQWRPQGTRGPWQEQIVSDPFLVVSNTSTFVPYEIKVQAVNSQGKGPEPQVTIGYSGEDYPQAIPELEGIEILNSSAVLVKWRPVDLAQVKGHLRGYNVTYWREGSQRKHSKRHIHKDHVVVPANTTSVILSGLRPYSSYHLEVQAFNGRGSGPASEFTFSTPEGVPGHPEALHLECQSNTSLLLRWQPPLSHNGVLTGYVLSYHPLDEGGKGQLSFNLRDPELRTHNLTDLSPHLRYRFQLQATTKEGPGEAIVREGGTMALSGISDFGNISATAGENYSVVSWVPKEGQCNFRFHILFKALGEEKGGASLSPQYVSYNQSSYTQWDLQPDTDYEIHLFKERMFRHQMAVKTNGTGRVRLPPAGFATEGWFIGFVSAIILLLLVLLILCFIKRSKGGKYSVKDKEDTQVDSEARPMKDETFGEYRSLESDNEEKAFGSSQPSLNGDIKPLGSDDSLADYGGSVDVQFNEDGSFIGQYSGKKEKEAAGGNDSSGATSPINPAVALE

Percent Inhibition of Neurite Outgrowth over 3T3 Cells Expressing NCAM (NCAM [2]): 13.7 ± 7.1%
Percent Inhibition of Neurite Outgrowth over 3T3 Cells Expressing L1 (L1 [3]): 7.8 ± 3.8%
Substance: Ac-CINPIC-NH2 (cysteine pairing not given here)
Percent Inhibition of Neurite Outgrowth (N-cadherin [1]; [8]): 7.5 ± 3.2%
Percent Inhibition of Neurite Outgrowth (N-cadherin [1]; [9]): 31.5 ± 7.5%
Percent Inhibition of Neurite Outgrowth (N-cadherin [1]; [10]): 56.2 ± 6.9%
Percent Inhibition of Neurite Outgrowth over 3T3 Cells Expressing N-cadherin (N-cadherin [1]; 100 μg/ml, Table IV): 94.5 ± 10.5%
Percent Inhibition of Neurite Outgrowth (N-cadherin [1]; [11]): 94.5 ± 10.5%
EC50 (N-cadherin [1]; cyclic peptides, Table III): 38.2 µM

Substance: Ac-CINPISC-NH2 (cysteine pairing not given here)
Percent Inhibition of Neurite Outgrowth (N-cadherin [1]; [9]): 21.8 ± 1.2%
Percent Inhibition of Neurite Outgrowth (N-cadherin [1]; [10]): 39.5 ± 4.3%
Percent Inhibition of Neurite Outgrowth (N-cadherin [1]; [11]): 73.4 ± 2.2%
EC50 (N-cadherin [1]; cyclic peptides, Table III): 38.1 µM

Substance: H-WLKIDPVNGQI-OH
Inhibition of neurite outgrowth on 3T3 cells expressing N-cadherin (N-cadherin [4]; 250 μg/ml, FIG. 6): inhibited
Inhibition of the N-cadherin neurite outgrowth response (N-cadherin [4]; 125 and 250 μg/ml, FIG. 5): fully inhibited
Inhibition of neurite outgrowth on 3T3 cells expressing NCAM (NCAM [5]): Only neurite outgrowth on 3T3 cells expressing N-cadherin was inhibited
Inhibition of neurite outgrowth on 3T3 cells expressing L1 (L1 [6]): Only neurite outgrowth on 3T3 cells expressing N-cadherin was inhibited
Binding to N-cadherin-Fc chimera coated flow cell (N-cadherin-Fc chimera): association of the peptide to the flow cell coated with the N-cadherin Fc chimera

Substance: N-Ac-CIDPVNC-NH2 (also: cyclic, type of ring not given here) [cyclic peptide comprising IDPVN, from EC4 of human N-cadherin]
Percent Inhibition of Neurite Outgrowth (N-cadherin [1]; [12]): 15.4 ± 8.9%

Substance: N-Ac-CINPC-NH2
Percent Inhibition of Neurite Outgrowth (N-cadherin [1]; [8]): 17.4 ± 5.7%
Percent Inhibition of Neurite Outgrowth (N-cadherin [1]; [9]): 51.9 ± 2.5%
Percent Inhibition of Neurite Outgrowth (N-cadherin [1]; [10]): 71.0 ± 6.5%
Percent Inhibition of Neurite Outgrowth (N-cadherin [1]; [11]): 98.1 ± 8.2%
EC50 (N-cadherin [1]; cyclic peptides, Table III): 14.3 µM

Substance: N-Ac-IDPVNGQ-NH2 [peptide derived from EC4 of human N-cadherin]
Percent Inhibition of Neurite Outgrowth (N-cadherin [1]; [12]): 0.6 ± 10.0%

Substance: N-Ac-INAISGQ-NH2 [control peptide with change in a specific amino acid]
Percent Inhibition of Neurite Outgrowth on 3T3 Cells Expressing N-cadherin (N-cadherin [1]; 33 μg/ml): 12.3 ± 6.2%

Percent Inhibition of Neurite Outgrowth over 3T3 Cells Expressing NCAM (NCAM [2]): 6.2 ± 3.0%
Percent Inhibition of Neurite Outgrowth over 3T3 Cells Expressing L1 (L1 [3]): 0.3 ± 1.8%
Substance: N-Ac-INPISGQ-NH2 [linear peptide derived from EC1 of human N-cadherin]
Percent Inhibition of Neurite Outgrowth on 3T3 Cells Expressing N-cadherin (N-cadherin [1]; 3 μg/ml): 19.5 ± 4.3%
Percent Inhibition of Neurite Outgrowth on 3T3 Cells Expressing N-cadherin (N-cadherin [1]; 10 μg/ml): 47.8 ± 4.1%
Percent Inhibition of Neurite Outgrowth on 3T3 Cells Expressing N-cadherin (N-cadherin [1]; 33 μg/ml): 73.0 ± 4.6%
Percent Inhibition of Neurite Outgrowth over 3T3 Cells Expressing FGFR (FGFR): 1.9 ± 5.1%
Disruption of SKOV3 cell adhesion (morphology) [7]: retract from one another and round-up
